# Key:
# 1205Lu melanoma cells = assay: Cell viability assay (EZQuant), 1205Lu; format: cell-based; settings: Homo sapiens, AP alone, 72 h, BRAF V600E
# Procedure: (§1) Cell proliferation assays were conducted in 96-well plates at 25-30% starting confluence to determine the effect of exposure to increasing concentrations of PLX4720 or AP with or without 1 mM DFMO for 72 hours. Cell viability was assessed using the EZQuant™ Cell Quantifying Kit (Alstem) in which WST-8 is reduced by the metabolic activity of live cells to formazan dye. […] The 72 hour IC50 values for AP were calculated using non-linear regression (sigmoidal dose response) of the plot of percentage inhibition versus the log of inhibitor concentration in GraphPad Prism (v5; GraphPad Software, Inc., La Jolla, Calif.).
# [1] = system: BRAF-mutant melanoma tumor; assay: BRAF-mutant melanoma tumor in mice treated with PLX4720; format: in vivo; settings: FIG. 11, co-treatment with PLX4720, begun when the tumor has regressed
# Procedure: FIG. 11 provides a graph of tumor volume in mice over time after treatment with PLX4720 alone or PLX4720 with delayed administration of AP and DFMO.
# In addition to the above, the efficacy of AP in vivo was also tested.
# [2] = system: polyamine transport system (PTS); assay: Radiolabeled spermidine transport assay, human melanoma cell lines; format: cell-based; settings: ± SD
# Procedure: Polyamine transport in tumor cells was evaluated essentially as described (Kramer, et al. (1993) J. Cell Physiol., 155(2):399-407; Nilsson, et al. (2005) Cancer Cell 7(5):433-444). Radioactive spermidine (Net-522 Spermidine Trihydrochloride, [Terminal Methylenes-^3H(n)]) from Perkin Elmer was used (specific activity: 16.6 Ci/mmol). Cells were plated in 96 well plates and grown to approximately 80% confluence. Half of the cells were treated with 1 mM DFMO for 40 hours. After repeated washing with PBS, ^3H-spermidine was added at 1 μM and incubated for 60 minutes at 37° C. Cells were then washed with cold PBS containing 50 μM spermidine and lysed in 0.1% SDS at 37° C. for 30 minutes with mixing. Cell lysates were then aliquoted for scintillation counting and for protein assay using a mini-BioRad assay. Results were expressed as CPM/g protein.
# WM3211 melanoma cells = assay: Cell viability assay (EZQuant), WM3211; format: cell-based; settings: Homo sapiens; AP alone, 72 h, WM3211, BRAF WT
# Procedure: as §1
# WM989 melanoma cells = assay: Cell viability assay (EZQuant), WM989; format: cell-based; settings: Homo sapiens; AP alone, 72 h, WM989, BRAF V600E
# Procedure: as §1
# BRAF^WT melanoma cells = assay: Cell viability, panel of BRAF WT human melanoma cell lines; format: cell-based; settings: summary of Table 1, BRAF WT lines, read-out: IC50 (sensitivity to AP)
# Description: A panel of human melanoma cell lines with different BRAF mutational status were screened for their sensitivity to the BRAF inhibitor PLX4720. […] The IC50 value is defined as the concentration of the compound (PLX4720) required to inhibit 50% cell viability compared to an untreated control. This approach allowed for the ranking of the relative sensitivity of each cell line to the PLX4720 BRAF inhibitor. Thus, the sensitivity of these BRAF^V600E melanoma cells to BRAF inhibition with PLX4720 reflected their functional dependence on mutant BRAF signaling to sustain their proliferation and viability. Likewise, it was tested whether BRAF^V600E cells were more sensitive compared to BRAF^WT melanoma cells to increasing concentrations of the cytotoxic polyamine transport ligand, AP.
# B16F10-BRAF^V600E cells = assay: Cell viability assay, B16F10-BRAF V600E; settings: Mus musculus, read-out: IC50 (cytotoxicity)
# Procedure: Cell proliferation assays were conducted in 96-well plates at 25-30% starting confluence to determine the effect of exposure to increasing concentrations of PLX4720 or AP with or without 1 mM DFMO for 72 hours. Cell viability was assessed using the EZQuant™ Cell Quantifying Kit (Alstem) in which WST-8 is reduced by the metabolic activity of live cells to formazan dye. For spheroids treated with PLX4720 and/or AP, viability of the spheroid cells was estimated by quantification of the ATP present using a CellTiter-Glo Luminescent Cell Viability Assay (Promega Co., Madison, Wis.). The 72 hour IC50 values for AP were calculated using non-linear regression (sigmoidal dose response) of the plot of percentage inhibition versus the log of inhibitor concentration in GraphPad Prism (v5; GraphPad Software, Inc., La Jolla, Calif.).
# [3] = system: BRAF^V600E YUMM1.7 melanoma cells; assay: Cell viability assay (EZQuant), YUMM1.7; format: cell-based, murine; settings: FIGS. 9A, 9B, 72 h
# Procedure: FIG. 9A: Murine BRAF^V600E YUMM1.7 melanoma cells and BRAF^WT B16F10 melanoma cells were treated with increasing doses of AP. After 72 hours of culture, cell survival was determined via EZQuant™ Cell Quantifying assay. IC50 values were calculated by GraphPad Prism 6. FIG. 9B: Murine BRAF^V600E YUMM1.7 melanoma cells and BRAF^WT B16F10 melanoma cells were treated with increasing doses of AP±1 mM DFMO or with PLX4720. After 72 hours of culture, cell survival was determined via EZQuant™ Cell Quantifying assay. IC50 values were calculated by GraphPad Prism 6. […] Cells were washed with cold PBS containing 50 μM spermidine, and cell lysates were assayed for CPM ^3H-spermidine per mg protein by scintillation counting.
compound,measurement,setting,value
CNCNCNCc1ccc(CNCNCNC)c2ccccc12 [AP],IC50,1205Lu melanoma cells,0.7 µM
same,regrowth of BRAF inhibitor-resistant tumor,[1],significantly retards the regrowth
same,PTS Activity (cpm ^3H Spd/μg Protein),"[2]; 1205Lu, column group AP (without DFMO)",230 ± 22 cpm ^3H Spd/μg Protein
same,PTS Activity (cpm ^3H Spd/μg Protein),"[2]; WM88, column group AP (without DFMO)",302 ± 18 cpm ^3H Spd/μg Protein
same,PTS Activity (cpm ^3H Spd/μg Protein),"[2]; WM983B, column group AP (without DFMO)",487 ± 64 cpm ^3H Spd/μg Protein
same,PTS Activity (cpm ^3H Spd/μg Protein),"[2]; WM989, column group AP (without DFMO)",304 ± 28 cpm ^3H Spd/μg Protein
same,PTS Activity (cpm ^3H Spd/μg Protein),"[2]; WM3211, column group AP (without DFMO)",278 ± 58 cpm ^3H Spd/μg Protein
same,PTS Activity (cpm ^3H Spd/μg Protein),"[2]; WM3451, column group AP (without DFMO)",130 ± 21 cpm ^3H Spd/μg Protein
same,PTS Activity (cpm ^3H Spd/μg Protein),"[2]; WM3734, column group AP (without DFMO)",444 ± 46 cpm ^3H Spd/μg Protein
same,PTS Activity (cpm ^3H Spd/μg Protein),"[2]; WM3743, column group AP (without DFMO)",117 ± 23 cpm ^3H Spd/μg Protein
same,IC50,WM3211 melanoma cells,4.5 µM
same,IC50,WM989 melanoma cells,1.2 µM
same,IC50,BRAF^WT melanoma cells,> 4 µM
same,IC50,B16F10-BRAF^V600E cells,24.4 µM
same,sensitivity to AP (IC50 compared to BRAF WT B16F10 cells),[3],significantly more sensitive

# Reference: patent US20190365673A1, “Immunomodulatory Compounds” (Lankenau Institute for Medical Research, priority 2016, published 2019)
